Reference: paper PMC7115508 (European Journal of Medicinal Chemistry, 2011)

Test system: normal human fibroblast cell HS27
Details: not given

SMILES | Cytotoxicity: concentration required to reduce proliferation of normal human fibroblast cell HS27 by 50% [µM]
O=c1cc(OCc2ccccc2)oc2ccc(OCc3cccc(Cl)c3)c(O)c12 [5a, 2-benzyloxy-6-(3-chloro-benzyloxy)-5-hydroxy-chromen-4-one] | >50
O=c1cc(OCc2cccc(Cl)c2)oc2ccc(OCc3cccc(Cl)c3)c(O)c12 [5b, 2,6-bis-(3-chloro-benzyloxy)-5-hydroxy-chromen-4-one] | >50
O=c1cc(OCc2ccc(Cl)cc2)oc2ccc(OCc3cccc(Cl)c3)c(O)c12 [5c, 6-(3-chloro-benzyloxy)-2-(4-chloro-benzyloxy)-5-hydroxy-chromen-4-one] | >50
O=c1cc(OCc2cc(Cl)cc(Cl)c2)oc2ccc(OCc3cccc(Cl)c3)c(O)c12 [5d, 6-(3-chloro-benzyloxy)-2-(3,5-dichloro-benzyloxy)-5-hydroxy-chromen-4-one] | >50
O=c1cc(OCc2cccc(I)c2)oc2ccc(OCc3cccc(Cl)c3)c(O)c12 [5e, 6-(3-chloro-benzyloxy)-5-hydroxy-2-(3-iodo-benzyloxy)-chromen-4-one] | >50
O=c1cc(OCc2ccc(I)cc2)oc2ccc(OCc3cccc(Cl)c3)c(O)c12 [5f, 6-(3-chloro-benzyloxy)-5-hydroxy-2-(4-iodo-benzyloxy)-chromen-4-one] | >50
N#Cc1cccc(COc2cc(=O)c3c(O)c(OCc4cccc(Cl)c4)ccc3o2)c1 [5g, 3-[6-(3-chloro-benzyloxy)-5-hydroxy-4-oxo-4H-chromen-2-yloxymethyl]-benzonitrile] | >50
O=C(O)/C(O)=C/C(=O)c1cccc(NCc2ccc(Cl)cc2)c1 [compound 1, reference compound] | >50
O=c1c(OCc2cccc([N+](=O)[O-])c2)c(-c2ccccc2)oc2cc(O)cc(O)c12 [compound 3, reference compound] | >50
N#Cc1cccc(COc2cc(O)c3c(=O)c(O)c(-c4ccccc4)oc3c2)c1 [compound 4, reference compound] | >50

Test system: HCV RNA replication in HCV replicon cell (Huh-7 carrying the subgenomic HCV genotype 1 replicon)
Details: read-out: Antiviral Activity HCV (EC50); cited from earlier work

SMILES | EC50 [µM]
O=c1c(OCc2cccc([N+](=O)[O-])c2)c(-c2ccccc2)oc2cc(O)cc(O)c12 [compound 3, reference compound] | 5
N#Cc1cccc(COc2cc(O)c3c(=O)c(O)c(-c4ccccc4)oc3c2)c1 [compound 4, reference compound] | 3
